Test results from patent US20090215714A1 (priority 2004, published 2009).
Entries after “also recorded” stand apart in the source; their conditions may differ.

Columns and labels:
Format in all cases: in vivo, human
[1] = test system: depressive episode in subjects with bipolar disorder I or II (HAM-D score); assay: Double-blind clinical trial of cytidine add-on to divalproex; HAM-D scores in bipolar depression
Source text: The new methods are based on a double-blind, long-term clinical trial designed to assess the impact of cytidine on patients with bipolar disorder who were undergoing a major depressive episode.
(§1) 65 subjects with either bipolar disorder I or II, as determined by the Structured Clinical Interview for DSM-IV-Patient Version (SCID), were studied during a depressive episode, as determined by a Hamilton Depression Rating Scale (HAM-D) score of 16 or greater. […] HAM-D scores for every subject were evaluated and recorded once a week for twelve weeks following baseline assessment.
The HAM-D scale is a 17-item scale used in the art to assess the severity of depression in patients already diagnosed with an affective disorder. Higher scores indicate more severe depression. Questions posed to subjects relate to symptoms such as depressed mood, guilty feelings, suicide, sleep disturbances, anxiety levels, and weight loss. Hamilton, (1960) J. Neurology and Neurosurgery in Psychiatry, 23:56-62.

[2] = test system: treatment emergent mania (YMRS score); assay: Treatment-emergent mania/hypomania by Young Mania Rating Scale (YMRS) in the clinical trial
Method: as §1
Tohen et al., (2003) Arch. Gen. Psychiatry, 60:1079-88.

[3] = test system: Glu, Gln, GABA and Lac in frontal gray matter (anterior cingulate); assay: Single voxel 1H MRS study of brain metabolites in frontal gray matter; settings: for Gray Matter Glu Concentration, Mean / gray matter GABA concentration, Mean / gray matter Gln concentration, Mean / gray matter Lac concentration, Mean: cytidine group n = 19
Method: A companion imaging single voxel ^1H MRS study to the behavioral study described in Example 1 examined Glx and Lac changes in frontal gray matter. […] Brain MRS was performed using a 3.0 Tesla GE whole body imaging system (GE VH/i, USA). The localized MR spectra were recorded using a point-resolved spatially localized spectroscopy (PRESS) sequence on a General Electric 3T scanner, which was optimized for acquisition of ^1H MR spectra from the frontal lobe. Voxel size was 1.5×1.5×1.5 cm. The voxels were verified in scout views in T2 images obtained vertically in the Z-axis to include predominantly gray matter of the anterior cingulate for the frontal brain region. The acquisition parameters were: repetition time (TR), 2000 ms; echo time (TE), 35 ms; average=128, phase size-cycling=8, and acquisition time, 4 minutes 16 seconds.

[4] = over the 4 week period, p=0.032

subjects with treatment-emergent mania, modified criteria ([2]; YMRS less than 12 at baseline and greater than 12 subsequently, cytidine plus divalproex): no subjects; also recorded: one subject
subjects with treatment-emergent mania ([2]; YMRS less than 15 at baseline and 15 or greater anytime during the study, 12 weeks, cytidine plus divalproex): No subject
subjects with treatment-emergent hypomania ([2]; cutoff of YMRS score of 9, 12-week trial period, vs six on placebo, p=0.041): one subject
subjects with treatment emergent hypomania ([2]; cutoff of YMRS score of 10, cytidine plus divalproex): one subject
Compound: Nc1ccn([C@@H]2O[C@H](CO)[C@@H](O)[C@H]2O)c(=O)n1 [cytidine]
affective improvement compared to placebo supplementation (FIG. 1) ([1]; HAM-D, add-on to divalproex, twelve weeks): enhanced the affective improvement
mean difference in HAM-D scores between groups ([1]; cytidine vs placebo, both add-on to divalproex, week 2 through 12, oral cytidine 1 gram/day): 2.66±0.65
increase in antidepressant efficacy compared to divalproex alone ([1]; oral cytidine added to divalproex, bipolar depression): 10%
Gray Matter Glu Concentration, Mean ([3]; Baseline): 11.38 millimolar
gray matter GABA concentration, Mean ([3]; Baseline): 0.91 millimolar
gray matter Gln concentration, Mean ([3]; Baseline): 7.38 millimolar
gray matter Lac concentration, Mean ([3]; Baseline): 1.71 millimolar
Gray Matter Glu Concentration, Mean ([3]; Week 2): 9.18 millimolar
gray matter GABA concentration, Mean ([3]; Week 2): 0.97 millimolar
gray matter Gln concentration, Mean ([3]; Week 2): 7.21 millimolar
gray matter Lac concentration, Mean ([3]; Week 2): 1.44 millimolar
Gray Matter Glu Concentration, Mean ([3]; Week 4): 8.85 millimolar
gray matter GABA concentration, Mean ([3]; Week 4): 1.03 millimolar
gray matter Gln concentration, Mean ([3]; Week 4): 6.99 millimolar
gray matter Lac concentration, Mean ([3]; Week 4): 1.42 millimolar
decrease in Glu levels ([3]; over the 4-week period, p<0.01): 22.2%
decrease in Gln levels ([3]; over the 4-week period, p=0.241): 5.3%
decrease in Lac levels [3, 4]: 17.0%
increase in GABA levels [3, 4]: 13.2%
